Values of other authors, collected in patent EP3292864A1, “MODIFIED RELEASE TABLET COMPOSITION COMPRISING MIRABEGRON” (Synthon B.V., priority 2017, dated 2018).

solubility (per BCS class): high solubility
SMILES: Nc1nc(CC(=O)Nc2ccc(CCNC[C@H](O)c3ccccc3)cc2)cs1 [Mirabegron, (R)-2-(2-aminothiazol-4-yl)-4'-[2-[(2-hydroxy-2-phenylethyl)amino]ethyl]acetic acid anilide]
solubility in water (assessment report of Betmiga® published by the European Medicines Agency): soluble in water between neutral to acidic pH
